Source: patent publication US20180028681A1, “COMBINATION THERAPY USING A CD19-ADC AND VINCRISTINE” (SEATTLE GENETICS, INC., priority 2015, published 2018)

Tests used:
Type in all cases: in vivo, mouse
[1] = test system: NALM-6; details: C.B-17 SCID mice; treatment 7 days post implant; SGN-CD19A single dose 1.0 mg/kg; cyclophosphamide 30, vincristine 0.375, doxorubicin 2.475 mg/kg single iv; dexamethasone 15 mg/kg ip daily x5; survivors sacrificed at 133 days
Description: (§1) Establishment of cell line xenografts: NALM-6 (DSMZ, Braunschweig, Germany) and RS4; 11 (ATCC, Manassas, Va.) cell lines were cultured in RPMI 1640 media, supplemented with Heat Inactivated Fetal Bovine serum (10%) and Penicillin/Streptomycin(1%) (Gibco, Grand Island, N.Y.). Cells were maintained in a humidified atmosphere at 37° C. and 5% CO2. For NALM-6 cell implantation, 1.0×10^5 cells in 200 ul PBS were injected into the tail vein of female C.B-17 SCID (Harlan Laboratories, Livermore, Calif.) mice. Mice were randomly assigned to treatment groups and treatment was given seven days post cell implant. For RS4; 11 cell implantation, 1.8×10^6 cells in 200 ul PBS were implanted into the tail vein of female C.B-17 SCID mice. Mice were randomly assigned to treatment groups. Treatment was given one day post cell implant. Treatment in the NALM-6 consisted of a single dose of SGN-CD19A at 1.0 mg/kg; in RS4; 11, SGN-CD19A was given once every four days for four doses at 0.3 mg/kg. Cyclophosphamide, 30 mg/kg (Baxter, Deefield, Ill.), Vincristine, 0.375 mg/kg (Hospira, Lake Forest, Ill.), and Doxorubicin, 2.475 mg/kg (Pfizer, NY, NY) were combined and administered as a single dose via intravenous injection into the lateral tail vein. Dexamethasone, 15 mg/kg (APP Pharmaceuticals, Schaumberg, Ill.), was given daily for five days via intraperitoneal injection. For each xenograft model, mice were monitored daily and body weights were collected at least once per week. Mice were removed from experiment at the onset of clinical disease signs (hind limb weakness, piloerection, hunched posture) or weight loss in excess of 20% of initial body weight.
(§2) Cell line-derived xenografts were used to investigate the median survival time for the combination of SGN-CD19A and CVAD, as well as SGN-CD19A and each of the components of CVAD. Either NALM-6 or Rs4; 11 cells were implanted into CB-17 SCID mice. Ten mice were assigned to each treatment group. […] SGN-CD19A and CVAD were administered at sub-optimal doses. Results are shown in FIGS. 4A and 4B and Tables 1 and 2. […] For the Rs4; 11 experiment, the experiment was terminated on day 154.

[2] = test system: RS4; 11; details: C.B-17 SCID mice; treatment 1 day post implant; SGN-CD19A 0.3 mg/kg every four days x4; cyclophosphamide 30, vincristine 0.375, doxorubicin 2.475 mg/kg single iv; dexamethasone 15 mg/kg ip daily x5; terminated day 154
Description: as §1, §2

[3] = test system: ALL patient donor 90811 xenograft; experiment: Disease burden (blast cells) in bone marrow, patient-derived ALL xenograft donor 90811; details: for Disease Burden in Bone Marrow, CD45/10% Mean: NOD-scid IL2Rγ null mice, dosed at 18% blasts in sentinels, bone marrow counts day 10 post-dose
Text: Establishment of patient-derived xenografts: NOD-scid IL2Rγ null mice were used as hosts for patient-derived xenografts. Twenty-four hours prior to cell implant, mice received 1.0 Gy irradiation using a Radsource 2000 irradiator (Radsource technologies, Suwanee, Ga.). Frozen bone marrow isolates of mononuclear cells from patients with acute lymphoblastic leukemia were obtained from […] (Alameda, Calif.). Cells were thawed in a warm water bath. After thaw, RPMI-1640 media was slowly added to the bone marrow isolate suspension. The cells were washed with PBS and centrifuged to remove DMSO in freezing media. After centrifugation, the cells were suspended in PBS. For, implantation, 3.6×10^6 cells were injected into the tail vein of female NOD-scid IL2Rγ null mice designated as donor, or passage 0 mice. Approximately 7 weeks after implant, mice were euthanized. Bone marrow and spleen were collected using sterile technique. Spleens were mechanically disrupted using a sterile syringe end and mesh filter. Connective tissues from spleens were filtered out using 40um filters. Splenocytes and bone marrow cells were treated with red blood cell buffer lysis (BD lysis buffer, BD biosciences, San Jose, Calif.) for 15 minutes at room temperature. A sample of the cells was utilized for confirmation of engraftment. The percentage of blast cells was determined by the number of CD45 FITC, CD19 PE-Cy.5 (BD Biosciences, San Jose, Calif.) CD10 APC (Biolegend, San Diego, Calif.) triple positive cells via flow cytometry (FACScalibur, BD Biosciences, San Jose, Calif.). The majority of the cells (passage 1) were placed into freezing media (90% Heat inactivated fetal bovine serum and 10% DMSO). Subsequent xenograft experiments utilized passage 1 cells. Cells were implanted in the same manner done for donor mice (passage 0 mice). Starting 14-21 days post implant, 2-3 sentinel mice were euthanized to determine the percentage blast cells in the bone marrow. […] SGN-CD19A and non-specific ADC (also called h00-1269) were administered as a single intraperitoneal injection at 1.0, 3.0, or 10.0 mg/kg dose. Cyclophosphamide at 15 or 30 mg/kg (Baxter, Deefield, Ill.), Vincristine at 0.188 or 0.375 mg/kg (Hospira, Lake Forest, Ill.), and Doxorubicin at 1.24 or 2.475 mg/kg (Pfizer, NY, NY) were combined and administered as a single dose via intravenous injection into the lateral tail vein. Dexamethasone at 7.5 or 15 mg/kg (APP Pharmaceuticals, Schaumberg, Ill.) was given daily via intraperitoneal injection for five days. At pre-determined times post treatment, mice were euthanized for collection of bone marrow and determination of blast cell percentage via flow cytometry.
The response of human patient-derived ALL cells to single agent SGN-CD19A or CVAD was determined in mouse xenograft models. Bone marrow isolates from patients with ALL (donor 06343 and donor 90811) were used to establish xenografts in NOD-scid IL2Rgamma^null mice. After engraftment, patient-derived bone marrow cells were frozen and are referred to as passage 1 cells. Passage 1 cells were implanted into mice and assessed for presence of blast cells (CD45/CD10/CD19 positive cells). […] Mice were given either 1, 3, or 10 mg/kg of SGN-CD19A or 10 mg/kg of a non-specific ADC conjugated to MMAF (also called h00-1269). A maximum tolerated dose (MTD) of CVAD had previously been determined in the same mouse strain. Mice were given either CVAD at the MTD or at 50% of the MTD.
The response of human patient-derived ALL cells to the combination of SGN-CD19A and CVAD was also determined in the mouse xenograft model. Patient samples were engrafted as described above.

Molecule	Median Survival [1]	Median Survival [2]	Disease Burden in Bone Marrow, CD45/10% Mean [3]	single agent dose response, blast cells in the bone marrow ([3]; SGN-CD19A 1, 3 or 10 mg/kg, CVAD at MTD or 50% of MTD, FIGS. 2B, 2D)
C[C@@H]1C[C@H]2[C@@H]3CCC4=CC(=O)C=C[C@]4(C)[C@@]3(F)[C@@H](O)C[C@]2(C)[C@@]1(O)C(=O)CO [Dexamethasone]	39 days	80 days	91.8%	–
CC[C@]1(O)C[C@H]2CN(CCc3c([nH]c4ccccc34)[C@@](C(=O)OC)(c3cc4c(cc3OC)N(C=O)[C@H]3[C@@](O)(C(=O)OC)[C@H](OC(C)=O)[C@]5(CC)C=CCN6CC[C@]43[C@@H]65)C2)C1 [Vincristine]	47 days	79 days	32.2%	–
O=P1(N(CCCl)CCCl)NCCCO1 (stereo not shown) [Cyclophosphamide]	38 days	58 days	94.4%	–
COc1cccc2c1C(=O)c1c(O)c3c(c(O)c1C2=O)C[C@@](O)(C(=O)CO)C[C@@H]3O[C@H]1C[C@H](N)[C@H](O)[C@H](C)O1 [Doxorubicin]	44 days	62 days	86.7%	–
SGN-CD19A: CD19-directed antibody-drug conjugate: humanized antibody hBU12, maleimidocaproyl linker, monomethyl auristatin F (MMAF); average four drugs per antibody (conjugate) VL: EIVLTQSPATLSLSPGERATLSCSASSSVSYMHWYQQKPGQAPRLLIYDTSKLASGIPARFSGSGSGTDFTLTISSLEPEDVAVYYCFQGSVYPFTFGQGTKLEIKR VH: QVQLQESGPGLVKPSQTLSLTCTVSGGSISTSGMGVGWIRQHPGKGLEWIGHIWWDDDKRYNPALKSRVTISVDTSKNQFSLKLSSVTAADTAVYYCARMELWSYYFDYWGQGTLVTVSS	55 days	85 days	18.2%	decreasing amounts of blast cells in the bone marrow
